Tests used:
PfARK3 = assay: KinaseSeeker assay on PfARK3; format: binding, P. falciparum; conditions: duplicate
P. berghei ANKA = assay: P. berghei liver stage parasite load assay in HepG2 cells; format: cell-based
PfNEK1 = assay: KinaseSeeker assay on PfNEK1; format: binding, P. falciparum; conditions: duplicate
PfPK9 = assay: KinaseSeeker assay on PfPK9; format: binding, P. falciparum; conditions: duplicate
PfPK6 = PfPK6 (Plasmodium falciparum, UniProt Q8IDW1); assay: KinaseSeeker split-luciferase assay on PfPK6; format: binding, P. falciparum; conditions: for remaining activity at 1 µM: read-out: PfPK6 activity remaining at 1 μM (%)
PfPK5 = PfPK5 (Plasmodium falciparum, UniProt P61075); assay: KinaseSeeker assay on PfPK5; format: binding, P. falciparum; conditions: read-out: PfPK5 % Activity remaining at 1 μM
P. falciparum 3D7 = assay: P. falciparum asexual blood stage viability assay; format: cell-based; conditions: compared to 41
PfARK1 = assay: KinaseSeeker assay on PfARK1; format: binding, P. falciparum; conditions: duplicate

Chain of PfPK5 (P61075 whole entry): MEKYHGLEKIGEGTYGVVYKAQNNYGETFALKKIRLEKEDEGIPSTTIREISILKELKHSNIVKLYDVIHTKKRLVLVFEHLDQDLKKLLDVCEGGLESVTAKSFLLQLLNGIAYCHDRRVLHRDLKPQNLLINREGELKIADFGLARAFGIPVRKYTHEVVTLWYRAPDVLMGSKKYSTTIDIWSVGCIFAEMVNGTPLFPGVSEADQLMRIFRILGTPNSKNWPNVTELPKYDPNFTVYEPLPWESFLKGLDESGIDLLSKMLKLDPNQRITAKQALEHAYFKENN

## COc1cc2nccc(Oc3ccc(NC(=O)Nc4ccc(C=C5CCNCC5)cc4)c(F)c3)c2cc1OC [Compound 68, 1-(4-((6,7-dimethoxyquinolin-4-yl)oxy)-2-fluorophenyl)-3-(4-(piperidin-4-ylidenemethyl)phenyl)urea]
PfARK3
  PfARK3 % Activity remaining at 1 μM: 100%
P. berghei ANKA; HepG2 host cells
  fold difference between P. berghei EC50 and CellTiter-Fluor CC50: 1.9 fold
P. berghei ANKA; inactive = EC50 not reported because <5-fold difference between observed EC50 and HepG2 CellTiter-Fluor cytotoxicity
  P. berghei liver stage activity in words: inactive^g
PfNEK1
  PfNEK1 % Activity remaining at 1 μM: 100%
PfPK9
  PfPK9 % Activity remaining at 1 μM: 100%
PfPK6
  remaining activity at 1 µM: 1%
PfPK5
  remaining activity at 1 µM: 100%
P. falciparum 3D7
  fold improvement in P. falciparum blood stage inhibitory activity over 41: approximately 4 fold

## COc1cc2nccc(Oc3ccc(NC(=O)Nc4ccc(CC5CCNCC5)c(C(F)(F)F)c4)c(F)c3)c2cc1OC [Compound 79, 1-(4-((6,7-dimethoxyquinolin-4-yl)oxy)-2-fluorophenyl)-3-(4-(piperidin-4-ylmethyl)-3-(trifluoromethyl)phenyl)urea]
PfARK1
  PfARK1 % Activity remaining at 1 μM: 100%
PfNEK1
  PfNEK1 % Activity remaining at 1 μM: 100%
PfPK6
  IC50: < 5 nM
  remaining activity at 1 µM: 1%

Reference: publication PMC10052868 (European journal of medicinal chemistry, 2022)
